Measurements as given in article PMC5293562, “Engineering a trifunctional proline utilization A chimaera by fusing a DNA-binding domain to a bifunctional PutA” (Bioscience Reports, 2016).
Read-outs that look alike come from different tables or passages of the source. Values belong to the compound of their own block, whether it stands above or below them.

Tests used:
EcRHH–RcPutA = tested on: T1, EcRHH–RcPutA; assay: stopped-flow, CoQ1 reduction at […] nm; type: biochemical, Rhodobacter capsulatus; conditions: 50 mM potassium phosphate pH 7.5, 25 mM NaCl, 23°C
T1 construct: gene putA; single polypeptide: E. coli PutA RHH domain (residues 1-52) fused via NdeI linker to N-terminus of full-length R. capsulatus PutA; 1180 aa; N-terminal His6 tag retained; pET28a, E. coli BL21(DE3) pLysS; homodimer, 126 kDa monomer

[1] = target: EcRHH–RcPutA chimaera (RHH domain of Escherichia coli PutA fused to the N-terminus of Rhodobacter capsulatus PutA) (Escherichia coli | Rhodobacter capsulatus) (UniProt P09546); assay: AUC; sedimentation equilibrium, 0.2, 0.5 and 0.8 mg/ml, 8000 rpm, 50 mM Tris pH 7.5, 100 mM NaCl, 0.5 mM EDTA, 5% glycerol; global fit to an ideal single-species model
[2] = target: EcRHH–RcPutA chimaera (RHH domain of Escherichia coli PutA fused to the N-terminus of Rhodobacter capsulatus PutA) (Escherichia coli | Rhodobacter capsulatus) (UniProt P09546); assay: SAXS; three protein concentrations after size exclusion chromatography in 50 mM Tris, 200 mM NaCl, 0.5 mM THP, pH 7.5; mass from volume of correlation and Porod-Debye analysis; shape reconstruction with 2-fold symmetry
[3] = tested on: EcRHH-RcPutA chimaera (Escherichia coli / Rhodobacter capsulatus (chimaera)); assay: EMSA; conditions: EMSA with 3 nM IRdye-700 put control DNA, 100 ug/ml calf thymus DNA, non-denaturing 4% polyacrylamide gel; binding buffer, salt, pH and temperature not given …
EcPutA = target: T2, EcPutA (Escherichia coli, UniProt P09546); conditions: 50 mM proline reduces flavin; anaerobic; HEPES pH 7.5, 150 mM NaCl; room temperature
T2 construct: gene putA

RcPutA = target: T3, RcPutA (Rhodobacter capsulatus, UniProt D5AN87); conditions: 50 mM proline reduces flavin; anaerobic; HEPES pH 7.5, 150 mM NaCl; room temperature
T3 construct: gene putA
T3 sequence (D5AN87 1-1127): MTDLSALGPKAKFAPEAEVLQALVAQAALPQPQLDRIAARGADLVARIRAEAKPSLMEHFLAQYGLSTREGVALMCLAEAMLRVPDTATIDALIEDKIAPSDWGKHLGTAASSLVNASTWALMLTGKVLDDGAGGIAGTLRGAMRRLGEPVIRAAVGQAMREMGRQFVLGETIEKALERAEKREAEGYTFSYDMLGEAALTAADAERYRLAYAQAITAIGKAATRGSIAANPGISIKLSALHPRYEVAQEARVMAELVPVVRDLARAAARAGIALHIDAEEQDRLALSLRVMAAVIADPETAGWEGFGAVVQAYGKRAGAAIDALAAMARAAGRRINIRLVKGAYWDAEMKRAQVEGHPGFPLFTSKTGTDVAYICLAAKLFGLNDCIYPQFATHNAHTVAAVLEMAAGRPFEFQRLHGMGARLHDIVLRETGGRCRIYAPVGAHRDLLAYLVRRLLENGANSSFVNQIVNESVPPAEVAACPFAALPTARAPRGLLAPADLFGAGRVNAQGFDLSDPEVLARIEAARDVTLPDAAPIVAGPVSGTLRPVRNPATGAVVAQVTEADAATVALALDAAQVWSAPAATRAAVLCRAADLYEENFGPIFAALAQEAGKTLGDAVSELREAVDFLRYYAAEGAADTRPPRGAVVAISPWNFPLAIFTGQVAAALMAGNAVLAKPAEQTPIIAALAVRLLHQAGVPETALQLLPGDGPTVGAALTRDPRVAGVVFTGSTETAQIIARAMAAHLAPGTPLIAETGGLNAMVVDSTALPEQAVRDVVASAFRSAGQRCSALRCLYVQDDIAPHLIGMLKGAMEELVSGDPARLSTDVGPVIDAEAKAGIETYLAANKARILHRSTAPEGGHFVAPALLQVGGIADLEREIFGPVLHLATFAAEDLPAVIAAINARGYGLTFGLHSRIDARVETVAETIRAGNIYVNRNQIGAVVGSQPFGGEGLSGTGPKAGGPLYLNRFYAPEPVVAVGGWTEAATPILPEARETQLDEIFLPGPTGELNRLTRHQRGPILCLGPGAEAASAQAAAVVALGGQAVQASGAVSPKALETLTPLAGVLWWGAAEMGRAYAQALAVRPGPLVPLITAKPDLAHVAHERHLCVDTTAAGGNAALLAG

Chain of EcRHH–RcPutA chimaera (RHH domain of Escherichia coli PutA fused to the N-terminus of Rhodobacter capsulatus PutA) (P09546 whole entry, the tested form may be a part): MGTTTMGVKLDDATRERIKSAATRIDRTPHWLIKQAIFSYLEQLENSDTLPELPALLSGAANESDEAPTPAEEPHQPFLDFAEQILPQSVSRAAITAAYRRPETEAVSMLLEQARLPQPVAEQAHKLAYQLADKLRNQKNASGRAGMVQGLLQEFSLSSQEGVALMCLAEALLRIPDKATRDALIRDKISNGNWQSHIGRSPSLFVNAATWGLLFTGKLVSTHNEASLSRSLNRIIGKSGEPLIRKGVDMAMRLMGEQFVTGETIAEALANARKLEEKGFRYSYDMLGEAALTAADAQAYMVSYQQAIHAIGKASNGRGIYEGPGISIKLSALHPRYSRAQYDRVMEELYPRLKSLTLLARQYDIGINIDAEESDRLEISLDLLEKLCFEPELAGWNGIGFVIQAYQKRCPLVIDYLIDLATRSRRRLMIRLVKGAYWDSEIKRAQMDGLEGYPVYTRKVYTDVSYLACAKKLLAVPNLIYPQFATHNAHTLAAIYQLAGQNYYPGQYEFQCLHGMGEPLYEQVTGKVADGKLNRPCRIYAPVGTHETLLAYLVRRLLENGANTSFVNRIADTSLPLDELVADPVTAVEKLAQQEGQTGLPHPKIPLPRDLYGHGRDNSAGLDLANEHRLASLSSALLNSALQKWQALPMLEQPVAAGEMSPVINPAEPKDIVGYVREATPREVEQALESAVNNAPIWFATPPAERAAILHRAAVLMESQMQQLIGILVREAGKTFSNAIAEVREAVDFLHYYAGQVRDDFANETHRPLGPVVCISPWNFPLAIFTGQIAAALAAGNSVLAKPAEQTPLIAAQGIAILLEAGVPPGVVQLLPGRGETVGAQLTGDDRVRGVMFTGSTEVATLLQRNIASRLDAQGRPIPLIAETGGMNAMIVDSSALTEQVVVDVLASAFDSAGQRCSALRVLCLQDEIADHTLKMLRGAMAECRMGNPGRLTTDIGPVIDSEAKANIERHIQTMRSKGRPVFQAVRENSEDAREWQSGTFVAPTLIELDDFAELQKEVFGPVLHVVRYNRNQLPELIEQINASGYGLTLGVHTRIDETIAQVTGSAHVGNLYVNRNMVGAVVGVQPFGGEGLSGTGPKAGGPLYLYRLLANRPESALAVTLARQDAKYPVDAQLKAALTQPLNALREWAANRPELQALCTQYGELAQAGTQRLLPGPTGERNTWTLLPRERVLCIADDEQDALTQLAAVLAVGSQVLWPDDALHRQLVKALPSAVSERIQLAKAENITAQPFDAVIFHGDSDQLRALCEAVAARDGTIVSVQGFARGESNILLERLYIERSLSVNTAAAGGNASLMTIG
T2 sequence (P09546 whole entry): as the sequence (P09546 whole entry, the tested form may be a part) above

- Km (EcRHH–RcPutA; PRODH electron acceptor, 200 mM proline, read-out: Proline / Km): 161 ± 15.8 µM
Compound: COC1=C(OC)C(=O)C(CC=C(C)C)=C(C)C1=O [CoQ1]

- stoichiometry N [1]: 2
- stoichiometry N [2]: 2
Compound: EcRHH–RcPutA chimaera (RHH domain of Escherichia coli PutA fused to the N-terminus of Rhodobacter capsulatus PutA) (from UniProt P09546 1-52) (enzyme)

Compound: put control DNA (420 bp)
- Kd [3]: 58 nM

- Km (EcRHH–RcPutA; PRODH site, 300 μM CoQ1, read-out: Km): 5300 ± 900 µM
Compound: O=C(O)[C@@H]1CCCN1 [proline]
- lipid pull-down (E. coli polar lipid vesicles), SDS/PAGE (EcPutA): RcPutA, EcRHH–RcPutA and EcPutA were incubated with E. coli polar lipid vesicles
- lipid pull-down (E. coli polar lipid vesicles), SDS/PAGE (RcPutA): In the presence of proline, RcPutA and EcRHH–RcPutA significantly partition into the lipid fraction
